What was measured:
GLP1R [1] = molecular target: T1, GLP1R (Homo sapiens, UniProt P43220); assay: GLP1R cAMP HTRF assay, HEK293/GLP-1R/CRE/Luc (HEK293T cells); type: cell-based; conditions: read-out: EC50
Method in brief: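 cAMP accumulation via HTRF after 30 min, 37 °C exposure of 1000 receptor-expressing cells/well to compound (0.5% DMSO final) in IBMX (500 μM)/0.1% BSA DPBS.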

GLP1R [2] = molecular target: T1, GLP1R; assay: β-Arrestin-mediated GLP1R internalization assay (PathHunter engineered U2OS cells); type: cell-based; set-up: host or cells: PathHunter engineered U2OS cells; conditions: averaged Bmax, percentage of control GLP-1 (7-37), highest concentration tested
Source text: A similar assay can also be used to assess the extent of signal attenuation due to GLP-1R internalization (the β-Arrestin Internalization Assay). In this assay, activated GLP1R Internalization cells were engineered to co-express an untagged GLP1R, Enzyme Acceptor (EA) tagged β-Arrestin, and a ProLink™ (PK) tag localized to the endosomes. Activation of the GLP1R induces β-Arrestin recruitment, which leads to internalization of the Receptor/Arrestin-EA complex in PK-tagged endosomes. This forces complementation of the two β-galactosidase enzyme fragments (EA and PK) to form a functional enzyme that hydrolyzes substrate to generate a chemiluminescent signal. These cells have been modified to prevent long term propagation and expansion using a proprietary compound that has no apparent effect on assay performance.
Specifically, PathHunter engineered U2OS cells from the assay kit (Cat #93-0724E3CP0L) were plated at a density of 2000 cells/20 μL/well in a 384-well white/clear bottom plates (Greiner Cat #781098). Frozen cells were quickly thawed and 10 mL of cell plating medium (provided by the kit) was added to thawed cells. Cells were stored in a 37° C. incubator and kept for approximately 48 hours until ready for the assay.
Reference and test compounds were dissolved in 100% DMSO. 5× concentration of an agonist was prepared in serum free DMEM (Thermo Cat #11965). 5 μL of this solution was added to 20 μL cell medium in assay plate for a final top concentration of 10 μM. Plates were incubated at 37° C. for 180 min.
Following 180 min incubation, detection reagents were made up by combining 1 part Galacton Star Substrate with 5 parts Emerald II™ Solution, and 19 parts of PathHunter Cell Assay Buffer, respectively. 12.5 μL detection reagent was added to each well. The plates were then incubated at room temperature for 60 min. Plates were then read on Envision for 0.1 sec/well.
EC50 determinations were made from agonist dose-response curves analyzed with a curve fitting program using a 4-parameter logistic dose response equation.

T1 sequence (P43220 24-463): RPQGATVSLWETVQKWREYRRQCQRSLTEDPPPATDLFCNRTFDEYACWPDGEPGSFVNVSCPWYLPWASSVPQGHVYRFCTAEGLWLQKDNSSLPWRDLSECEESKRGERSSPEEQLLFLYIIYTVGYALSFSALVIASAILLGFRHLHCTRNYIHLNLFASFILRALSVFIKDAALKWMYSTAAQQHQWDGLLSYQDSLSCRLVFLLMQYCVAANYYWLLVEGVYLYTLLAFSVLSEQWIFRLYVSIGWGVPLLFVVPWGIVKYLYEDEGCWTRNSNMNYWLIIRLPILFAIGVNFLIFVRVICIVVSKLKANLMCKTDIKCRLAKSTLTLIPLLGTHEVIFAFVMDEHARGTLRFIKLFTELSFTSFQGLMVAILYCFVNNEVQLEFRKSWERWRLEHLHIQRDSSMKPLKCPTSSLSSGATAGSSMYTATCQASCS

Row | Compound | EC50 (GLP1R [1]) [nM] | Bmax (POC) (GLP1R [2])
1 | O=C(O)c1ccc2nc(CN3CC=C(c4cccc(OCc5ccc(Cl)cc5F)n4)CC3)n(C[C@@H]3CCO3)c2c1 [Compound 221, (S)-2-((6-((4-chloro-2-fluorobenzyl)oxy)-3′,6′-dihydro-[2,4′-bipyridin]-1′(2′H)-yl)methyl)-1-(oxetan-2-ylmethyl)-1H-benzo[d]imidazole-6-carboxylic acid] | ≤ 15 | 30.0 ± 6.40
2 | O=C(O)c1ccc2nc(CN3CC=C(c4ccnc(OCc5ccc(Cl)cc5F)n4)CC3)n(C[C@@H]3CCO3)c2c1 [Compound 35, (S)-2-((4-(2-((4-chloro-2-fluorobenzyl)oxy)pyrimidin-4-yl)-3,6-dihydropyridin-1(2H)-yl)methyl)-1-(oxetan-2-ylmethyl)-1H-benzo[d]imidazole-6-carboxylic add] | ≤ 15 | 14.3 ± 9.21
3 | N#Cc1ccc(COc2cncc(C3CCN(Cc4nc5ccc(C(=O)O)cc5n4C[C@@H]4CCO4)CC3)n2)c(F)c1 [Compound 22, (S)-2-((4-(6-(4-cyano-2-fluorobenzyloxy)pyrazin-2-yl)piperidin-1-yl)methyl)-1-(oxetan-2-ylmethyl)-1 h-benzo[d]imidazole-6-carboxylic acid] | ≤ 150 | 7.40 ± 6.97
4 | N#Cc1ccc(COc2cccc(C3=CCN(Cc4nc5ccc(C(=O)O)nc5n4C[C@@H]4CCO4)CC3)n2)c(F)c1 [Compound 225, (S)-2-((6-((4-cyano-2-fluorobenzyl)oxy)-3′,6′-dihydro-[2,4′-bipyridin]-1′(2′H)-yl)methyl)-3-(oxetan-2-ylmethyl)-3H-imidazo[4,5-b]pyridine-5-carboxylic add] | ≤ 15 | 24.0 ± 6.70
5 | O=C(O)c1ccc2nc(CN3CC=C(c4cccc(OCc5ccc(-c6cccnc6)cc5)n4)CC3)n(C[C@@H]3CCO3)c2c1 [Compound 242, (S)-1-(oxetan-2-ylmethyl)-2-((6-((4-(pyridin-3-yl)benzyl)oxy)-3′,6′-dihydro-[2,4′-bipyridin]-1′(2′H)-yl)methyl)-1H-benzo[d]imidazole-6-carboxylic add] | ≤ 15 | 15.4
6 | O=C(O)c1ccc2nc(CN3CC=C(c4cccc(OCc5ccc(Cl)cc5F)c4)CC3)n(C[C@@H]3CCO3)c2n1 [Compound 224, (S)-2-((4-(3-((4-chloro-2-fluorobenzyl)oxy)phenyl)-3,6-dihydropyridin-1(2H)-yl)methyl)-3-(oxetan-2-ylmethyl)-3H-imidazo[4,5-b]pyridine-5-carboxylic acid] | ≤ 15 | 22.5 ± 1.41
7 | O=C(O)c1ccc2nc(CN3CC=C(c4ccc(F)c(OCc5ccc(Cl)cc5F)c4)CC3)n(C[C@@H]3CCO3)c2c1 [Compound 29, (S)-2-((4-(3-((4-chloro-2-fluorobenzyl)oxy)-4-fluorophenyl)-3,6-dihydropyridin-1(2H)-yl)methyl)-1-(oxetan-2-ylmethyl)-1 h-benzo[d]imidazole-6-carboxylic acid] | ≤ 15 | 25.9 ± 1.24
8 | O=C(O)c1ccc2nc(CN3CCC(c4cccc(OCc5ccc(Cl)cc5F)c4)CC3)n(C[C@@H]3CCO3)c2c1 [Compound 239, (S)-2-((4-(3-((4-chloro-2-fluorobenzyl)oxy)phenyl)piperidin-1-yl)methyl)-1-(oxetan-2-ylmethyl)-1H-benzo[d]imidazole-6-carboxylic acid] | ≤ 15 | 14.1 ± 1.57
9 | O=C(O)c1ccc2nc(CN3CC=C(c4cccc(OCc5ccc(Cl)cc5F)c4)CC3)n(C[C@@H]3CCO3)c2c1 [Compound 28, (S)-2-((4-(3-((4-chloro-2-fluorobenzyl)oxy)phenyl)-3,6-dihydropyridin-1(2H)-yl)methyl)-1-(oxetan-2-ylmethyl)-1 h-benzo[d]imidazole-6-carboxylic add] | ≤ 15 | 17.6 ± 6.62
10 | O=C(O)c1ccc2nc(CN3CC=C(c4ccc(F)c(OCc5ccc(Cl)cc5F)c4)CC3)n(C[C@@H]3CCO3)c2n1 [Compound 236, (S)-2-((4-(3-((4-chloro-2-fluorobenzyl)oxy)-4-fluorophenyl)-5,6-dihydropyridin-1(2H)-yl)methyl)-3-(oxetan-2-ylmethyl)-3H-imidazo[4,5-b]pyridine-5-carboxylic acid] | ≤ 15 | 30.0
11 | O=C(O)c1ccc2nc(CN3CC=C(c4cccc(OCc5ccc(Cl)cc5F)c4)CC3)n(C[C@@H]3CCO3)c2c1F [Compound 237, (S)-2-((4-(3-((4-chloro-2-fluorobenzyl)oxy)phenyl)-3,6-dihydropyridin-1(2H)-yl)methyl)-7-fluoro-1-(oxetan-2-ylmethyl)-1H-benzo[d]imidazole-6-carboxylic acid] | ≤ 15 | 17.7 ± 1.20
12 | N#Cc1ccc(COc2nc(C3=CCN(Cc4nc5ccc(C(=O)O)cc5n4C[C@@H]4CCO4)CC3)ccc2F)c(F)c1 [Compound 222, (S)-2-((6-((4-cyano-2-fluorobenzyl)oxy)-5-fluoro-3′,6′-dihydro-[2,4′-bipyridin]-1′(2′H)-yl)methyl)-1-(oxetan-2-ylmethyl)-1H-benzo[d]imidazole-6-carboxylic acid] | ≤ 15 | 31.4 ± 2.62
13 | O=C(O)c1ccc2nc(CN3CCC(c4cncc(OCc5ccc(Cl)cc5F)n4)CC3)n(C[C@@H]3CCO3)c2c1 [Compound 21, (S)-2-((4-(6-(4-chloro-2-fluorobenzyloxy)pyrazin-2-yl)piperidin-1-yl)methyl)-1-(oxetan-2-ylmethyl)-1 h-benzo[d]imidazole-6-carboxylic acid] | ≤ 15 | 6.64 ± 1.55
14 | N#Cc1ccc(COc2cncc(C3=CCN(Cc4nc5ccc(C(=O)O)cc5n4C[C@@H]4CCO4)CC3)n2)c(F)c1 [Compound 23, (S)-2-((4-(6-(4-cyano-2-fluorobenzyloxy)pyrazin-2-yl)-5,6-dihydropyridin-1(2H)-yl)methyl)-1-(oxetan-2-ylmethyl)-1 h-benzo[d]imidazole-6-carboxylic acid] | ≤ 15 | 8.92 ± 3.70
15 | O=C(O)c1ccc2nc(CN3CCC(c4ccnc(OCc5ccc(Cl)cc5F)n4)CC3)n(C[C@@H]3CCO3)c2c1 [Compound 18, (S)-2-((4-(2-((4-chloro-2-fluorobenzyl)oxy)pyrimidin-4-yl)piperidin-1-yl)methyl)-1-(oxetan-2-ylmethyl)-1H-benzo[d]imidazole-6-carboxylic acid] | ≤ 15 | 21.3 ± 3.47
16 | N#Cc1ccc(COc2cccc(C3=CCN(Cc4nc5ccc(C(=O)O)cc5n4C[C@@H]4CCO4)CC3)n2)c(F)c1 [Compound 19, (S)-2-((4-(6-(4-cyano-2-fluorobenzyloxy)pyridin-2-yl)-5,6-dihydropyridin-1(2H)-yl)methyl)-1-(oxetan-2-ylmethyl)-1 h-benzo[d]imidazole-6-carboxylic add] | ≤ 15 | 20.1
17 | O=C(O)c1ccc2nc(CN3CC=C(c4cccc(OCc5ccc(-n6ccnc6)cc5)n4)CC3)n(C[C@@H]3CCO3)c2n1 [Compound 245, (S)-2-((4-(6-(4-(1H-imidazol-1-yl)benzyloxy)pyridin-2-yl)-5,6-dihydropyridin-1(2H)-yl)methyl)-3-(oxetan-2-ylmethyl)-3H-imidazo[4,5-b]pyridine-5-carboxylic add] | ≤ 15 | 27.7
18 | O=C(O)c1ccc2nc(CN3CC=C(c4ccc(F)c(OCc5ccc(Cl)cc5F)c4)CC3)n(C[C@@H]3CCO3)c2c1F [Compound 238, (S)-2-((4-(3-((4-chloro-2-fluorobenzyl)oxy)-4-fluorophenyl)-3,6-dihydropyridin-1(2H)-yl)methyl)-7-fluoro-1-(oxetan-2-ylmethyl)-1H-benzo[d]imidazole-6-carboxylic acid] | ≤ 15 | 52.8 ± 1.14
19 | O=C(O)c1ccc2nc(CN3CC=C(c4cncc(OCc5ccc(Cl)cc5F)n4)CC3)n(C[C@@H]3CCO3)c2c1 [Compound 34, (S)-2-((4-(6-(4-chloro-2-fluorobenzyloxy)pyrazin-2-yl)-5,6-dihydropyridin-1(2H)-yl)methyl)-1-(oxetan-2-ylmethyl)-1 h-benzo[d]imidazole-6-carboxylic acid] | ≤ 15 | 8.88 ± 3.19
